As a reminder, the Ki is a dissociation constant, usually derived from enzyme kinetics or from competition with a known ligand.

The record followed here is ChEMBL document CHEMBL1128053, “Inhibition of matrix metalloproteinases by N-carboxyalkyl dipeptides: Enhanced potency and selectivity with substituted P1 homophenylalanines” (Bioorg Med Chem Lett, 1995).

For one test, the target named is T1, Interstitial collagenase (Homo sapiens, UniProt P03956).
T1 sequence (P03956 whole entry): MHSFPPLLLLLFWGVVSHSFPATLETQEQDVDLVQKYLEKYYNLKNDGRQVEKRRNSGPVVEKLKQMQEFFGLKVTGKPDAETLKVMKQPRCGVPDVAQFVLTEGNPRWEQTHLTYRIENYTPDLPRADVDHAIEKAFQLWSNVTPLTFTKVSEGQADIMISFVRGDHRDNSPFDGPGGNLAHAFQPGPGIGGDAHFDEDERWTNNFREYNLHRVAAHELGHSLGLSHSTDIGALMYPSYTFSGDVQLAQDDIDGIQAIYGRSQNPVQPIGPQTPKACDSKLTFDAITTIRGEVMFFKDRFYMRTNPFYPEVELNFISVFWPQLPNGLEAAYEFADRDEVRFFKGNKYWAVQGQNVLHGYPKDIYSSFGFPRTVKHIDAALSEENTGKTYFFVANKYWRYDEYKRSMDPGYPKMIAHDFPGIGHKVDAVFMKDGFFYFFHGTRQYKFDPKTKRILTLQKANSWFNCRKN

For test [1], the target named is 72 kDa type IV collagenase (Homo sapiens, UniProt P08253).
Sequence of 72 kDa type IV collagenase (P08253 whole entry): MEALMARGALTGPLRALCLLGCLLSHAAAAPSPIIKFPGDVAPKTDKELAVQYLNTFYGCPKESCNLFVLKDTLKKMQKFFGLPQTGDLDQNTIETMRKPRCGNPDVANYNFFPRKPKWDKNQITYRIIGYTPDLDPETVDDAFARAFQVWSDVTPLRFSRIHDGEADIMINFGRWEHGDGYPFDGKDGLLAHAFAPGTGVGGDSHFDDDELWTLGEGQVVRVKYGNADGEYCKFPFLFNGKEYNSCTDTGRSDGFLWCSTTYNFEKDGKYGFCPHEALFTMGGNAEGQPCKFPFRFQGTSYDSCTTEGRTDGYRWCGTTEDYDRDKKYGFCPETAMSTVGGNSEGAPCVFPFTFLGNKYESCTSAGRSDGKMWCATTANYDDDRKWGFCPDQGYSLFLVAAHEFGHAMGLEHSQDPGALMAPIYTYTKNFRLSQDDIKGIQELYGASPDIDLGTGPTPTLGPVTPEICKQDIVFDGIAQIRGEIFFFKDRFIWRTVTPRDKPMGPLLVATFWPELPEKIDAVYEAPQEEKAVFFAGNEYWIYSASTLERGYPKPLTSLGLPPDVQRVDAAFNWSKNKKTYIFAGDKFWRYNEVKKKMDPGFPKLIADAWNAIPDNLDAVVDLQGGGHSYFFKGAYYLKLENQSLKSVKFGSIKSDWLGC

For `CCCCc1ccc(CC[C@H](N[C@H](C)C(=O)O)C(=O)N[C@@H](CCCNC(=N)N)C(=O)Nc2ccccc2)cc1`, the results for the Ki (at Interstitial collagenase; in test [1]) were above 10 µM and 0.0021 µM, respectively.
As for `C[C@@H](N[C@@H](CCc1ccccc1)C(=O)N[C@@H](CCCNC(=N)N)C(=O)Nc1ccccc1)C(=O)O`, the Ki on Interstitial collagenase is 0.47 µM; in test [1] it was 0.21 µM.
With `CCCc1ccc(CC[C@H](N[C@H](C)C(=O)O)C(=O)N[C@@H](CCCN=C(N)N)C(=O)Nc2ccccc2)cc1`, the values for the Ki (at Interstitial collagenase; in test [1]) were 2.9 µM and 0.003 µM, respectively.
`CC(C)C[C@H](NC(=O)[C@H](CCc1ccccc1O)N[C@H](C)C(=O)O)C(=O)Nc1ccccc1` returned a Ki on Interstitial collagenase of 2.7 µM.
As for `Cc1ccc(CC[C@H](N[C@H](C)C(=O)O)C(=O)N[C@@H](CC(C)C)C(=O)Nc2ccccc2)cc1C`, the Ki on Interstitial collagenase came to 7.7 µM; in test [1] it was 0.025 µM.
`CCc1ccc(CC[C@H](N[C@H](C)C(=O)O)C(=O)N[C@@H](CC(C)C)C(=O)Nc2ccccc2)cc1`: the Ki is 2.3 µM on Interstitial collagenase and 0.012 µM in test [1].
For `CC(C)C[C@H](NC(=O)[C@H](CCc1ccc(C(F)(F)F)cc1)N[C@H](C)C(=O)O)C(=O)Nc1ccccc1`, the Ki at Interstitial collagenase is 5.1 µM; in test [1], 0.11 µM.
As to `CC(C)C[C@H](NC(=O)[C@H](CCc1ccc(F)cc1)N[C@H](C)C(=O)O)C(=O)Nc1ccccc1`, the results for the Ki (on Interstitial collagenase; in test [1]) were 0.87 µM and 0.22 µM, respectively.
With `Cc1cccc(CC[C@H](N[C@H](C)C(=O)O)C(=O)N[C@@H](CC(C)C)C(=O)Nc2ccccc2)c1`, the affinity on Interstitial collagenase, expressed as Ki, was 1.5 µM.
Same read-out and setting: to `Cc1ccc(CC[C@H](N[C@H](C)C(=O)O)C(=O)N[C@@H](CC(C)C)C(=O)Nc2ccccc2)cc1` belongs 1.9 µM.
Take `CC(C)Cc1cccc(CC[C@H](N[C@H](C)C(=O)O)C(=O)N[C@@H](CC(C)C)C(=O)Nc2ccccc2)c1`: the Ki at Interstitial collagenase is above 10 µM; in test [1] it was 6.1 µM.
For `CC(C)C[C@H](NC(=O)[C@H](CCc1ccc(O)cc1)N[C@H](C)C(=O)O)C(=O)Nc1ccccc1`, the affinity at Interstitial collagenase corresponds to a Ki of 1 µM.
Regarding `CCOc1ccc(CC[C@H](N[C@H](C)C(=O)O)C(=O)N[C@@H](CCCNC(=N)N)C(=O)Nc2ccccc2)cc1`, the results for the Ki (at Interstitial collagenase; in test [1]) were 2.3 µM and 0.0061 µM, respectively.
In the case of `CC(C)C[C@H](NC(=O)[C@H](CCc1ccc(Cl)cc1)N[C@H](C)C(=O)O)C(=O)Nc1ccccc1`, the figures for the Ki (at Interstitial collagenase; in test [1]) were 2.1 µM and 0.077 µM, respectively.
Regarding `COc1ccc(CC[C@H](N[C@H](C)C(=O)O)C(=O)N[C@@H](CC(C)C)C(=O)Nc2ccccc2)cc1OC`, the Ki (at Interstitial collagenase; in test [1]) was above 10 µM throughout.
Compound `COc1ccccc1CC[C@H](N[C@H](C)C(=O)O)C(=O)N[C@@H](CC(C)C)C(=O)Nc1ccccc1` returned a Ki on Interstitial collagenase above 10 µM.
Regarding `Cc1cc(C)cc(CC[C@H](N[C@H](C)C(=O)O)C(=O)N[C@@H](CC(C)C)C(=O)Nc2ccccc2)c1`, the values for the Ki (on Interstitial collagenase; in test [1]) were above 10 µM and 4.84 µM, respectively.
`COc1cccc(CC[C@H](N[C@H](C)C(=O)O)C(=O)N[C@@H](CC(C)C)C(=O)Nc2ccccc2)c1` yielded a Ki at Interstitial collagenase above 10 µM.
`CC(C)C[C@H](NC(=O)[C@H](CCc1cccc(Cl)c1)N[C@H](C)C(=O)O)C(=O)Nc1ccccc1` gave a Ki on Interstitial collagenase of 3.3 µM.
Take `CC(C)C[C@H](NC(=O)[C@H](CCc1ccc(C(C)C)cc1)N[C@H](C)C(=O)O)C(=O)Nc1ccccc1`: the Ki at Interstitial collagenase is above 10 µM; in test [1], 0.13 µM.
As for `CC(C)Cc1ccc(CC[C@H](N[C@H](C)C(=O)O)C(=O)N[C@@H](CC(C)C)C(=O)Nc2ccccc2)cc1`, the Ki at Interstitial collagenase was above 10 µM; in test [1], 0.011 µM.
Regarding `CC(C)C[C@H](NC(=O)[C@H](CCc1cccc(O)c1)N[C@H](C)C(=O)O)C(=O)Nc1ccccc1`, the affinity at Interstitial collagenase, expressed as Ki, was 0.51 µM.
`Cc1ccccc1CC[C@H](N[C@H](C)C(=O)O)C(=O)N[C@@H](CC(C)C)C(=O)Nc1ccccc1` displayed a Ki at Interstitial collagenase above 10 µM.
For the compound `CCCc1ccc(CC[C@H](N[C@H](C)C(=O)O)C(=O)N[C@@H](CC(C)C)C(=O)Nc2ccccc2)cc1`, the Ki at Interstitial collagenase is 5.9 µM; in test [1], 0.0035 µM.
